Read-outs that look alike come from different tables or passages of the source.
Assays:
hSERT = hSERT (Homo sapiens (Human), UniProt P31645); assay: SERT radioligand binding assay ([125I]RTI-55, HEK-293 membranes)
Protocol: (§1) The medium was removed from the flasks and the cells rinsed with HBSS without Ca and without Mg. The cells were then incubated for 5-10 minutes in 10 mM Tris-Cl, pH 7.5, 5 mM EDTA before the cells were lifted with a combination of pipetting and scraping, as needed. The cell suspension was collected into centrifuge bottles and homogenized for 30 seconds with a Polytron homogenizer. The suspension was centrifuged for 30 minutes at 32,000×g, 4° C. The supernatant was decanted and the pellet resuspended and homogenized in 50 mM Tris-Cl, pH 7.5, 1 mM EDTA for 10 seconds. The suspension was then centrifuged again for 30 minutes at 32,000×g, 4° C. The supernatant was decanted and the pellet resuspended in 50 mM Tris-Cl, pH 7.5, 1 mM EDTA and briefly homogenized. A Bradford assay (Bio-rad) was performed and the membrane preparation diluted to 2 mg/ml with 50 mM Tris-Cl, pH 7.5, 1 mM EDTA. Aliquots were prepared, and then frozen and stored at −80° C.
Compounds were dissolved in 100% DMSO at a concentration 100 times the desired highest assay concentration, serially diluted 1:3 in 100% DMSO, and 0.4 μl/well of each solution was dispensed to a Nunc polypropylene, round bottom, 384-well plate. […] The contents of the assay plate were then transferred to a Millipore MultiscreenHTS GF/B filter plate which was pretreated with 0.5% PEI for at least one hour. The plate was vacuum filtered and washed with 7 washes of […] 50 mM Tris-Cl, pH 7.5, 120 mM NaCl, 5 mM KCl chilled to 4° C. The filtration and washing were completed in less than 90 seconds. The plates were air-dried overnight, 12 μl/well of MicroScint scintillation fluid added, and the plates counted in a Trilux.
(§2) Each plate was run in triplicate, and the concentration response curve thus generated was fit using the four-parameter dose response equation, Y=Bottom+(Top-Bottom)/(1+10^((Log IC50−X)*HillSlope)) in order to determine the IC50 value for each compound. The radioligand concentration chosen for each assay corresponds to the Kd concentration determined through saturation binding analysis for each assay.

hNET = hNET (Homo sapiens (Human), UniProt P23975); assay: NET radioligand binding assay ([3H]nisoxetine, HEK-293 membranes)
Chain of hNET (P23975 whole entry): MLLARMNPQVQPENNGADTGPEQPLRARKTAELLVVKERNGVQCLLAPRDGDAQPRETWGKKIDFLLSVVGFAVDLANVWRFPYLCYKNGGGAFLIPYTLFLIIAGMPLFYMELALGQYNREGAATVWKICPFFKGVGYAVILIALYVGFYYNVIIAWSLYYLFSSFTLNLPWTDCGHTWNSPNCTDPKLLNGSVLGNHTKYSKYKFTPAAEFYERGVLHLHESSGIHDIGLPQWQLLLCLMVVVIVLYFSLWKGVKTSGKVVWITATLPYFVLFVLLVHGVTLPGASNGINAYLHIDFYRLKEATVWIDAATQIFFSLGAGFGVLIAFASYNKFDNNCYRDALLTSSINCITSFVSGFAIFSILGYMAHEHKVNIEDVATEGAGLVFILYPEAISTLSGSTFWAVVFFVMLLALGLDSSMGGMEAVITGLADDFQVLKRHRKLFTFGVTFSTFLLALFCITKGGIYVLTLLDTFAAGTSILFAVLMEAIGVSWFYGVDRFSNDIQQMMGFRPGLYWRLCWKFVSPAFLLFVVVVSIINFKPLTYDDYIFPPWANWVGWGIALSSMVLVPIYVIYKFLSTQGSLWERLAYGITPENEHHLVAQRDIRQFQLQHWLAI
Protocol: as §1
Compounds were dissolved in 100% DMSO at a concentration 100 times the desired highest assay concentration, serially diluted 1:3 in 100% DMSO, and 1.0 μl/well of each solution was dispensed to a Nunc polypropylene, round bottom, 384-well plate. […] 50 μl/well of a 2× membrane preparation (0.4 mg/ml in 50 mM Tris-Cl, pH 7.5, 120 mM NaCl, 5 mM KCl) and 50 μl/well of a 2× radioligand solution (4 nM [^3H]nisoxetine in 50 mM Tris-Cl, pH 7.5, 120 mM NaCl, 5 mM KCl) were added to the well and the reaction incubated for 1 hour at room temperature. The contents of the assay plate were then transferred to a Millipore MultiscreenHTS GF/B filter plate which was pretreated with 0.5% PEI for at least one hour. The plate was vacuum filtered and washed with 7 washes of 100 μl/well 50 mM Tris-Cl, pH 7.5, 120 mM NaCl, 5 mM KCl chilled to 4° C. The filtration and washing were completed in less than 90 seconds. The plates were air-dried overnight, 12 μl/well of MicroScint scintillation fluid added, and the plates counted in a Trilux.
as §2

hDAT = hDAT (Homo sapiens (Human), UniProt Q01959); assay: DAT radioligand binding assay ([125I]RTI-55, HEK-293 membranes)
Chain of hDAT (Q01959 whole entry): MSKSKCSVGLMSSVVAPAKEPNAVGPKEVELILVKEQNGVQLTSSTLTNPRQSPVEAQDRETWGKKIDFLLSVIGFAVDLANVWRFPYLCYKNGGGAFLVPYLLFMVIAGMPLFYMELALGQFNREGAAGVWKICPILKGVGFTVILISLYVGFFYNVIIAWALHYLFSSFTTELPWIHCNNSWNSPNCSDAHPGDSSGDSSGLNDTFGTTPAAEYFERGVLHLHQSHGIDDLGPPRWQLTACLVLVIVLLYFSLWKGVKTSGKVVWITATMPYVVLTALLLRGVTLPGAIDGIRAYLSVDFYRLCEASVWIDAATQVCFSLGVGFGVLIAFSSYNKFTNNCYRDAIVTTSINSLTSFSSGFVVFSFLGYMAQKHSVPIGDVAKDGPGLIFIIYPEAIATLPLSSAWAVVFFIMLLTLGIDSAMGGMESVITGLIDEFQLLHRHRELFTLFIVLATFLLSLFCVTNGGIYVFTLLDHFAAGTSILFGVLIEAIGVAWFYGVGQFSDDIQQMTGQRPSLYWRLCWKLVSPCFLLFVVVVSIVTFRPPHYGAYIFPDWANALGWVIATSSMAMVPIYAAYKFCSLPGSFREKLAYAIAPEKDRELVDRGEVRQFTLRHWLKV
Protocol: as §1, with “Recombinant HEK-293 cells expressing either the hSERT, hDAT, or hNET proteins were harvested from T-175 flasks as follows. The medium” for “The medium”
Compounds were dissolved in 100% DMSO at a concentration 100 times the desired highest assay concentration, serially diluted 1:3 in 100% DMSO, and 0.4 μl/well of each solution was dispensed to a Nunc polypropylene, round bottom, 384-well plate. […] 20 ul/well of a 2× membrane preparation (12.5 μg/ml in 30 mM sodium phosphate buffer, pH 7.9 at 4° C.) and 20 μl/well of a 2× radioligand solution (250 pM [^125I]RTI-55 in 30 mM sodium phosphate buffer, pH 7.9 at 4° C.) were added to the well and the reaction incubated for 1 hour at room temperature. The contents of the assay plate were then transferred to a Millipore MultiscreenHTS GF/B filter plate which was pretreated with 0.5% PEI for at least one hour. The plate was vacuum-filtered and washed with 7 washes of 100 μl/well 50 mM Tris-Cl, pH 7.5, 120 mM NaCl, 5 mM KCl chilled to 4° C. The filtration and washing were completed in less than 90 seconds. The plates were air-dried overnight, 12 μl/well of MicroScint scintillation fluid added, and the plates counted in a Trilux.
as §2

[1] = recombinant HEK-293 membranes, [125I]RTI-55, read-out: Binding Affinity (IC50, nM) SERT
[2] = recombinant HEK-293 membranes, [3H]nisoxetine, read-out: Binding Affinity (IC50, nM) NET
[3] = recombinant HEK-293 membranes, [125I]RTI-55, read-out: Binding Affinity (IC50, nM) DAT

Chain of hSERT (P31645 whole entry): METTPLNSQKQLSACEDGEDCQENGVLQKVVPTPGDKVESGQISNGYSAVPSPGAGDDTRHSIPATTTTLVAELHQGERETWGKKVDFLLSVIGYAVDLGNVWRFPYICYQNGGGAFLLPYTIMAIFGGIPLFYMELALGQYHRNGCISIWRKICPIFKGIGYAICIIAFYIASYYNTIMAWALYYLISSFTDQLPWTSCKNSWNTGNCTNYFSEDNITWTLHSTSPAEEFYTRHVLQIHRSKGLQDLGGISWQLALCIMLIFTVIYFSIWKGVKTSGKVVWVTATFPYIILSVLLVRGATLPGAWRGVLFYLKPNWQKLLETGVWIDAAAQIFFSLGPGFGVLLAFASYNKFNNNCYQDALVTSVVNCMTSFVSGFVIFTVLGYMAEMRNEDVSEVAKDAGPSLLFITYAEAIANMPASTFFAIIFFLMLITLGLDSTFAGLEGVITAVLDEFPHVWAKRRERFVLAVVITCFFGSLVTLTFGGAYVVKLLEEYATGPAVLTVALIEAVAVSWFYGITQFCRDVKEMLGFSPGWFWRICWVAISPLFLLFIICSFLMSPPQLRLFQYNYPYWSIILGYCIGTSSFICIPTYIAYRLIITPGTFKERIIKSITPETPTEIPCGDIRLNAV

| Structure (SMILES) | IC50 (hSERT; [1]) [nM] | IC50 (hNET; [2]) [nM] | IC50 (hDAT; [3]) [nM] | IC50 (hSERT) [nM] | IC50 (hDAT) [nM] | IC50 (hNET) [nM] |
| --- | --- | --- | --- | --- | --- | --- |
| Fc1ccc(C23CCN(Cc4cc(-c5ccc(C(F)(F)F)nn5)ccc42)C3)cc1Cl (single isomer, unassigned) [56(−), 5-(3-chloro-4-fluorophenyl)-2,5-methano-8-(6-(trifluoromethyl)pyridazin-3-yl)-2,3,4,5-tetrahydro-1H-benzo[c]azepine] | 57.8 | 798 | 243 |  |  |  |
| COc1ccc2c(c1)CN1CCC2(c2ccc(Cl)cc2)CC1 [Example 12, 5-(4-chlorophenyl)-8-methoxy-2,5-ethano-2,3,4,5-tetrahydro-1H-2-benzo[c]azepine] | 7.8 | 881 | 52 |  |  |  |
| Oc1ccc2c(c1)CN1CCC2(c2ccc(Cl)cc2)CC1 [Example 13, 5-(4-chlorophenyl)-2,5-ethano-2,3,4,5-tetrahydro-1H-2-benzo[c]azepin-8-ol] | 16.3 | 691 | 21.1 |  |  |  |
| FC(F)(F)c1ccc(-c2ccc3c(c2)CN2CCC3(c3ccc(Cl)cc3)CC2)nn1 [Example 15, 5-(4-chlorophenyl)-2,5-ethano-8-(6-(trifluoromethyl)pyridazin-3-yl)-2,3,4,5-tetrahydro-1H-benzo[c]azepine] |  | 384 |  | 2.6 | 121 |  |
| Clc1ccc(C23CCN(CC2)Cc2cc(-c4cncnc4)ccc23)cc1 [Example 16, 5-(4-chlorophenyl)-2,5-ethano-8-(pyrimidin-5-yl)-2,3,4,5-tetrahydro-1H-benzo[c]azepine] | 7.3 | 2930 | 156 |  |  |  |
| Cc1nnc2ccc(-c3ccc4c(c3)CN3CCC4(c4ccc(Cl)cc4)CC3)cn12 [Example 20, 5-(4-chlorophenyl)-2,5-ethano-8-(3-methyl-[1,2,4]triazolo[4,3-a]pyridin-6-yl)-2,3,4,5-tetrahydro-1H-benzo[c]azepine] | 12.1 | 1020 | 220 |  |  |  |
| Clc1ccc(C23CCN(CC2)Cc2cc(-c4cnc5ccccc5n4)ccc23)cc1 [Example 21, 5-(4-chlorophenyl)-2,5-ethano-8-(quinoxalin-2-yl)-2,3,4,5-tetrahydro-1H-benzo[c]azepine] | 5.2 | 1540 | 353 |  |  |  |
| O=c1n(-c2ccc3c(c2)CN2CCC3(c3ccc(Cl)cc3)CC2)nc2ccccn12 [Example 23, 2-(5-(4-chlorophenyl)-2,5-ethano-2,3,4,5-tetrahydro-1H-benzo[c]azepin-8-yl)-[1,2,4]triazolo[4,3-a]pyridin-3(2H)-one] | 1.5 | 176 | 37.5 |  |  |  |
| O=c1ccccn1-c1ccc2c(c1)CN1CCC2(c2ccc(Cl)cc2)CC1 [Example 24, 1-(5-(4-chlorophenyl)-2,5-ethano-2,3,4,5-tetrahydro-1H-benzo[c]azepin-8-yl)pyridin-2(1H)-one] | 7.3 | 5330 | 856 |  |  |  |
| Cc1nnc(-c2ccc3c(c2)CN2CCC3(c3ccc(Cl)cc3)CC2)s1 [Example 25, 2-(5-(4-chlorophenyl)-2,5-ethano-2,3,4,5-tetrahydro-1H-benzo[c]azepin-8-yl)-5-methyl-1,3,4-thiadiazole] | 6.4 | 392 | 169 |  |  |  |
| N#Cc1cccc(-c2ccc3c(c2)CN2CCC3(c3ccc(Cl)cc3)CC2)c1 [Example 27, 3-(5-(4-chlorophenyl)-2,5-ethano-2,3,4,5-tetrahydro-1H-benzo[c]azepin-8-yl)benzonitrile] |  |  | 135 | 3.4 |  | 355 |
| Clc1ccc(C23CCN(CC2)Cc2cc(N4CCOCC4)ccc23)cc1 [Example 28, 4-(5-(4-chlorophenyl)-2,5-ethano-2,3,4,5-tetrahydro-1H-benzo[c]azepin-8-yl)morpholine] | 8 | 438 | 58.9 |  |  |  |
| c1cc(C23CCN(CC2)Cc2cc(N4CCOCC4)ccc23)ccc1N1CCOCC1 [Example 29, 4-(2,5-ethano-5-(4-morpholinophenyl)-2,3,4,5-tetrahydro-1H-benzo[c]azepin-8-yl)morpholine] | 328 | 5460 | 5260 |  |  |  |
| CCS(=O)(=O)N1CCN(c2ccc3c(c2)CN2CCC3(c3ccc(Cl)cc3)CC2)CC1 [Example 30, 5-(4-chlorophenyl)-8-(4-(ethylsulfonyl)piperazin-1-yl)-2,5-ethano-2,3,4,5-tetrahydro-1H-benzo[c]azepine] | 10 | 55.8 | 13.6 |  |  |  |
| CCS(=O)(=O)N1CCN(c2ccc(C34CCN(CC3)Cc3cc(N5CCN(S(=O)(=O)CC)CC5)ccc34)cc2)CC1 [Example 31, 8-(4-(ethylsulfonyl)piperazin-1-yl)-5-(4-(4-(ethylsulfonyl)piperazin-1-yl)phenyl)-2,5-ethano-2,3,4,5-tetrahydro-1H-benzo[c]azepine] | 2320 | 8300 | 4020 |  |  |  |
| Clc1ccc(C23CCN(CC2)Cc2cc(Oc4cnccn4)ccc23)cc1 [Example 33, 5-(4-chlorophenyl)-2,5-ethano-8-(pyrazin-2-yloxy)-2,3,4,5-tetrahydro-1H-benzo[c]azepine] | 6.1 | 910 | 116 |  |  |  |
| Nc1cnc(Oc2ccc3c(c2)CN2CCC3(c3ccc(Cl)cc3)CC2)cn1 [Example 34, 5-(5-(4-chlorophenyl)-2,5-ethano-2,3,4,5-tetrahydro-1H-benzo[c]azepin-8-yloxy)pyrazin-2-amine] | 2.3 | 430 | 104 |  |  |  |
| Clc1ccc(C23CCN(CC2)Cc2cc(OCCCc4ccncc4)ccc23)cc1 [Example 35, 5-(4-chlorophenyl)-2,5-ethano-8-(3-(pyridin-4-yl)propoxy)-2,3,4,5-tetrahydro-1H-benzo[c]azepine] | 4.2 | 54.8 | 205 |  |  |  |
| Clc1ccc(C23CCN(CC2)Cc2cc(OCCCc4cccnc4)ccc23)cc1 [Example 36, 5-(4-chlorophenyl)-2,5-ethano-8-(3-(pyridin-3-yl)propoxy)-2,3,4,5-tetrahydro-1H-benzo[c]azepine] | 1.2 | 62.3 | 65.7 |  |  |  |
